Patent US11566004B2, “Process for the preparation of bromodomain inhibitor” (Celgene Quanticel Research, Inc., priority 2018, dated 2023)
In brackets after ≈: the same amount, converted by molar mass. Where two headings read alike, the source gives them in different places.

Experiments:
[1] = Solubility of Compound 1 in process solvents (ICH class solvents, NMP, DMAc, formic acid); type: physicochemical; conditions: for solubility: organic solvent or mixture
From the text: The final isolation of Compound 1 requires a polish filtration. For this, the batch must be completely soluble.
The solubility curve of Compound 1 in formic acid-Water is quite steep (see FIG. 7), which enables a volumetrically efficient process.

bromodomain 4 (BRD4) = bromodomain 4 (BRD4) (Homo sapiens, UniProt O60885); conditions: preliminary in vitro studies; see U.S. Pat. No. 9,034,900; cited from earlier work
[2] = system: Raji, human Burkitts lymphoma cells; conditions: see U.S. Pat. No. 9,034,900; cited from earlier work
[3] = system: HL-60, human proleukemia cells; conditions: HL-60 cells; see U.S. Pat. No. 9,034,900; cited from earlier work
[4] = system: NCI-H460, human non-small cell lung cancer cells; conditions: see U.S. Pat. No. 9,034,900; cited from earlier work
[5] = Solubility of bromination starting material, product and impurity in CH2Cl2 (with or without 10% H2SO4); type: physicochemical; conditions: for Solubility in CH2Cl2, 10% H2SO4, 10° C.: CH2Cl2 with 10% H2SO4, 10° C.; for Solubility in CH2Cl2, 10% H2SO4, 20° C.: CH2Cl2 with 10% H2SO4, 20° C.; for Solubility in CH2Cl2, 10% H2SO4, 30° C.: CH2Cl2 with 10% H2SO4, 30° C.
Procedure: This solubility difference is exploited by performing the reaction at a high concentration to drive Compound 5 out of solution once formed, thereby minimizing its ability to react further with the brominating reagent to form Compound 5-a diBr. The reaction is seeded with Compound 5 to initiate its crystallization.

[6] = Solid phase and solution stability of boronic esters; type: physicochemical
From the text: The final bond forming step to Compound 1 is a Suzuki-Miyaura coupling between Compounds 2 and 3, as shown in Scheme 3 below (Norio, M. and Suzuki, A., Chem. Rev., 95(7), 2457-2483 (1995)). […] The pinacolatoboronate of the O-alkyl phenol, Compound 7, had acceptable solid phase stability and could be isolated via crystallization.
This was particularly problematic as the isolation process involved a solvent exchange from 2-MeTHF (2-methyl tetrahydrofuran) to iPrOAc (isopropyl acetate), which is not a fast unit operation on scale.

SMILES | Solubility in CH2Cl2, 10° C. [5] [mg/mL] | Solubility in CH2Cl2, 20° C. [5] [mg/mL] | Solubility in CH2Cl2, 30° C. [5] [mg/mL] | Solubility in CH2Cl2, 10% H2SO4, 10° C. [5] [mg/mL] | Solubility in CH2Cl2, 10% H2SO4, 20° C. [5] [mg/mL] | Solubility in CH2Cl2, 10% H2SO4, 30° C. [5] [mg/mL] | other results
Cn1cc(-c2cc(S(C)(=O)=O)ccc2OCC2CC2)c2ccccc2c1=O [Compound 1, 4-[2-(cyclopropylmethoxy)-S-methylsulfonylphenyl]-2-methylisoquinolin-1-one] |  |  |  |  |  |  | Solubility in almost all ICH Class 3 and common Class 2 (e.g. THF, MeCN) solvents ([1]; ICH Class 3 and common Class 2 solvents): low solubility; solubility ([1]; N-methyl-2-pyrrolidone (NMP), read-out: Solubility in N-methyl-2-pyrrolidone (NMP)): > 50 mg/mL; solubility ([1]; dimethylacetamide (DMAc), read-out: Solubility in dimethylacetamide (DMAc)): > 50 mg/mL; solubility ([1]; formic acid, 20° C., read-out: Solubility in formic acid): > 250 mg/mL; Solubility in a warm MeCN-water mix ([1]; warm MeCN-water mix): reasonable solubility; BRD4 inhibition (bromodomain 4 (BRD4)): observed; other cancer-related inhibitory activity [2]: observed; other cancer-related inhibitory activity [3]: observed; other cancer-related inhibitory activity [4]: observed
CS(=O)(=O)c1ccc(O)cc1 [Compound 4, 4-(methylsulfonyl)phenol] | 30 (≈ 174 mM) | 46 (≈ 267 mM) | 198 (≈ 1150 mM) | 19 (≈ 110 mM) | 51 (≈ 296 mM) | 390 (≈ 2260 mM) | 
CS(=O)(=O)c1cc(Br)c(O)c(Br)c1 [Compound 5-a diBr] | 5 (≈ 15.2 mM) | 7 (≈ 21.2 mM) | 10 (≈ 30.3 mM) | 5 (≈ 15.2 mM) | 7 (≈ 21.2 mM) | 14 (≈ 42.4 mM) | 
CS(=O)(=O)c1ccc(O)c(Br)c1 [Compound 5] | 6 (≈ 23.9 mM) | 8 (≈ 31.9 mM) | 20 (≈ 79.6 mM) | 5 (≈ 19.9 mM) | 8 (≈ 31.9 mM) | 11 (≈ 43.8 mM) | 
CC1(C)OB(c2cc(S(C)(=O)=O)ccc2OCC2CC2)OC1(C)C [Compound 7] |  |  |  |  |  |  | Solution stability ([6]; in solution, decomposing primarily to proteodeborylated compound 10): poor; Solid phase stability ([6]; solid phase): acceptable
